The assay has as its target T1, COX-2 (Homo sapiens, UniProt P35354).
T1 construct: purchased Cayman Chemicals (Ann Arbor, Mich.)
T1 sequence (P35354 18-604): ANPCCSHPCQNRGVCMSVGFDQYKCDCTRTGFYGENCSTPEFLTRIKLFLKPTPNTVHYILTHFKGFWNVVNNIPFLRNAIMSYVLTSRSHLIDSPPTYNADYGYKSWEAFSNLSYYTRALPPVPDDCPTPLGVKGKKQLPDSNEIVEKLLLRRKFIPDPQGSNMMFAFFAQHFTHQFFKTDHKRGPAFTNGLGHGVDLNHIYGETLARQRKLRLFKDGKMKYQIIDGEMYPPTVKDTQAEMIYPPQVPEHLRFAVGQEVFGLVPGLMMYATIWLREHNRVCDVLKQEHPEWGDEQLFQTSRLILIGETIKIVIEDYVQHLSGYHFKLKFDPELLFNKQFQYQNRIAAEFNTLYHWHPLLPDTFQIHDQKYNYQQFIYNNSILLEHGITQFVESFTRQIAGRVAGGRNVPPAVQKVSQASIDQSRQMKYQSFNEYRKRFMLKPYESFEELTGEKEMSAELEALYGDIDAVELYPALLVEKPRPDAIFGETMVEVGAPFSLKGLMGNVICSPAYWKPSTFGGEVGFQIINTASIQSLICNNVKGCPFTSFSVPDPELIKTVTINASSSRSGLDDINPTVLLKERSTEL
The experiment in a line: COX-2 inhibition assay (Cayman Chemicals; prostaglandin production quantified by EIA). In kind it is biochemical. Particulars: in words; known compounds of SRB Extract 1. As for the experimental part:
All reagents and solutions were prepared according to the protocols established by Cayman Chemicals (Ann Arbor, Mich.) for the COX-1 and COX-2 inhibition assays. Two procedures were utilized to assess the COX-1/COX-2-specific and non-specific activities.
Prostaglandin Production Inhibition: Extracts were diluted in dimethylsulfoxide (DMSO), and then diluted in reaction buffer so that the final concentration of DMSO was 1%. Reactions were either run with COX-1 or COX-2 in the presence of Heme. Wells containing potential inhibitors (SRB extracts), non-inhibitor (100% activity) or background wells (heat inactivated enzyme) along with appropriate blanks were prepared. Solutions were placed in a 37° C. incubator for 15 minutes prior to running the reaction. Arachidonic acid was added and mixed and the reaction proceeded for 2 minutes. The reaction was stopped by addition of 1 M HCl to each well, then reducing the Prostaglandin H2 product to ProstaglandinG F2, which was quantified using EIA.
Quantification of Prostaglandin with EIA: The EIA assay plate was provided in the Cayman Chemicals screening kit. Aliquots, 50 μL, of the reaction products (PGF2) from prostaglandin production were added to their respective wells. […] The color development was quantified at 409 nm in a Tecan M200 microplate reader.

On to `CCCc1ccccn1` [conyrin], for which the COX-2 inhibition entry is “strong”.
Turning to `CC1(C)C[C@@H](O)C[C@@]2(C)OC(=O)C=C12` [epiloliode, Epiloliolide], the COX-2 inhibition result is on record as “strong”.
